Values after ≈ are worked out from the molar mass of the structure shown.
Columns and labels:
[1] = test system: H9; experiment: Concentration required for […] against acutely infected H9 cells; format: functional, cell-based; details: Homo sapiens
[2] = Evaluated for the therapeutic index value of the compound.; format: functional
[3] = test system: H9; experiment: Tested for anti-HIV activity against acutely infected H9 cells, activity expressed as EC50.; format: functional, cell-based; details: Homo sapiens

Row | IC50 [1] | EC50 [3] | Structure (SMILES) | Therapeutic index [2]
1 | 5.1 µg/mL (≈ 9.57 µM) | 0.3 µg/mL (≈ 0.563 µM) | CC(C)(O)/C=C/C(=O)[C@](C)(O)C1[C@H](O)C(=O)[C@@]2(C)[C@@H]3CC=C4[C@@H](C[C@H](O)[C@@H](O)C4(C)C)[C@]3(C)C(=O)C[C@]12C (some centres not stated) | 17
2 | 38 µg/mL (≈ 71.1 µM) | 2.5 µg/mL (≈ 4.68 µM) | CC(C)(O)CCC(=O)[C@](C)(O)C1[C@H](O)C(=O)[C@@]2(C)[C@@H]3CC=C4[C@@H](C[C@H](O)[C@@H](O)C4(C)C)[C@]3(C)C(=O)C[C@]12C (some centres not stated) | 15.2
3 | 9.3 µg/mL (≈ 17.9 µM) | 0.8 µg/mL (≈ 1.54 µM) | CC(C)(O)CCC(=O)[C@](C)(O)C1[C@H](O)C[C@@]2(C)[C@@H]3CC=C4[C@@H](C[C@H](O)[C@@H](O)C4(C)C)[C@]3(C)C(=O)C[C@]12C (some centres not stated) | 11.6

Row | Structure (SMILES) | IC50 [1] | EC50 [3] | Therapeutic index [2]
4 | CC(C)(O)/C=C/C(=O)[C@](C)(O)[C@H]1[C@H](O)C[C@@]2(C)[C@@H]3CC=C4[C@@H](C[C@H](O)[C@@H](O)C4(C)C)[C@]3(C)C(=O)C[C@]12C [CUCURBITACIN F] | 0.16 µg/mL (≈ 0.308 µM) | 0.06 µg/mL (≈ 0.116 µM) | 2.7

Source: ChEMBL document CHEMBL1127897, “Cucurbitacin F derivatives, anti-HIV principles from cowania mexicana” (Bioorg Med Chem Lett, 1994)
